Patent US20120053170A1, “NICOTINAMIDE DERIVATIVES, PREPARATION THEREOF, AND THERAPEUTIC USE THEREOF AS ANTICANCER DRUGS” (SANOFI, priority 2009, published 2012)

What follows are molecules tested on HCT116 tumour line (ATCC-CCL247) (assay: MTS cell proliferation and viability test on the HCT116 tumour line). Conditions: Homo sapiens, HCT-116, incubating the test compound for 72 hours, read-out: IC50 (concentration of compound which results in a 50% loss of cell proliferation and viability).
Assay type: cell-based
Method: They were tested in vitro on the HCT116 tumour line (ATCC-CCL247). […] In this test, the mitochondrial ability of the living cells to convert MTS to a coloured compound is measured after incubating the test compound for 72 hours.

| IC50 | Compound |
| --- | --- |
| < 1 nM | CCNc1nc(-c2ccc(NC(=O)NCc3ccc(N)nc3)cc2F)ccc1C(=O)NCCN1CCCCC1 [Compound No. 11, 6-{4-[3-(6-Aminopyridin-3-ylmethyl)ureido]-2-fluorophenyl}-2-ethylamino-N-[2-(piperidin-1-yl)ethyl]nicotinamide] |
| < 1 nM | CCNc1nc(-c2ccc(NC(=O)NCc3cccnc3)c(F)c2)ccc1C(=O)NCCN1CCCCC1 [Compound No. 27, 2-Ethylamino-6-{3-fluoro-4-[3-(pyridin-3-ylmethyl)ureido]phenyl}-N-[2-(piperidin-1-yl)ethyl]nicotinamide] |
| < 1 nM | CCNc1nc(-c2ccc(NC(=O)NCc3ccc(N)nc3)c(F)c2)ccc1C(=O)NCCN1[C@H](C)CCC[C@@H]1C [Compound No. 19, 6-{4-[3-(6-Aminopyridin-3-ylmethyl)ureido]-3-fluorophenyl]-N-[2-(cis-2,6-dimethylpiperidin-1-yl)ethyl]-2-(ethylamino)nicotinamide] |
| < 1 nM | Nc1ccc(CNC(=O)Nc2ccc(-c3ccc(C(=O)NCCN4CCCCC4)c(Nc4ccccc4)n3)cc2F)cn1 [Compound No. 5, 6-{4-[3-(6-Aminopyridin-3-ylmethyl)ureido]-3-fluorophenyl}-2-phenylamino-N-[2-(piperidin-1-yl)ethyl]nicotinamide] |
